Results published in PMC7278776, “Multidrug Resistance Modulation Activity of Silybin Derivatives and Their Anti-Inflammatory Potential” (Antioxidants, 2020).
Counter-ions that a name gives are not always drawn. One block for each compound: values may come before it.

Columns and labels:
[1] = tested on: A2780/DOX; test: Viability of A2780/DOX cells (resazurin)
Procedure: To determine the NO production, the medium was mixed with Griess reagent (0.04 g/mL, prepared in deionized water) in a 1:1 ratio. After 15 min, absorbance was recorded at 540 nm. To determine cell viability, the resazurin solution (0.03 mg/mL in PBS) was added to the cells. After 2 h of incubation, fluorescence was recorded (560/590 nm, ex./em.).
A multidrug resistant ovarian sub-line resistant to doxorubicin (A2780/DOX, Sigma-Aldrich) was cultivated in DMEM medium with 10% FBS and 1 × antibiotic antimycotic solution. Every other passage, doxorubicin at the final concentration of 0.1 µM was added to the culture medium to maintain the resistance of the cell line. To perform experiments, the cells were seeded at 1 × 10^5 cell/mL into the wells of a 96-well plate and incubated for 24 h. Afterwards, the cells were washed with PBS and fresh DMEM medium with tested compounds at 10, 20 and 30 µM were added to each well, except for the control wells. Subsequently, the cells were exposed to increasing concentrations of doxorubicin (0.6–20 µM) for 72 h. After incubation, the resazurin assay was performed as described above. The IC50 of doxorubicin was calculated for both the control and the samples and the fold change was counted up. […] The fold change lower than 1 means an antagonistic effect. (1) FOLD CHANGE=IC50 value of DOX cells treated with chemotherapeutic /IC50 value of DOX cells treated with chemotherapeutic and compound

[2] = tested on: A2780/DOX; test: Sensitization of the MDR cell line to doxorubicin; assay type: cell-based, human; details: Homo sapiens, no flavonolignan added, same value repeated in each column, read-out: IC50 of doxorubicin alone
[3] = tested on: nitric oxide (NO) production by LPS-stimulated macrophages (RAW 264.7); test: NO production by LPS-stimulated macrophages (Griess); assay type: cell-based, mouse; details: Mus musculus, RAW264.7; RAW 264.7, LPS 1 µg/mL, 24 h; read-out: NO Production, concentration necessary to halve NO production (IC50)
Procedure: Immunomodulatory effect of tested compounds was determined as their ability to decrease nitric oxide (NO) production by LPS-stimulated macrophages (RAW 264.7, Sigma-Aldrich). Briefly, the cells were seeded into the 96-well plate at a density of 1 × 10^6 cells/mL in DMEM medium (supplemented with 2 mM L-glutamine and 1 × antibiotic antimycotic solution). After 48 h, the cells were washed with PBS. The MEM medium enriched with LPS (1 µg/mL) was added to the wells, together with the samples in the concentration range of 6.25–100 µM at a final volume of 100 µL. Indomethacin, a non-steroidal anti-inflammatory drug, was tested as a positive control in the concentration range 6.25–100 µM. After 24 h, the medium was used for the quantification of NO and inflammatory cytokines.
After 15 min, absorbance was recorded at 540 nm.

[4] = molecular target: T1, human recombinant P-gp (Homo sapiens, UniProt P08183); test: biochemical; details: verapamil-stimulated P-gp ATPase, membrane fraction; read-out: P-gp, concentration necessary to halve ATP consumption (IC50)
T1 construct: purchased Promega
Procedure: The procedure and the dilution of the reagents were performed according to the manufacturer’s instructions. Briefly, the human recombinant P-gp-containing membrane (25 µg) was mixed in a 96-well plate with P-gp–Glo™ Assay buffer (control), verapamil (P-gp substrate, positive control, 0.2 mM), Na3VO4 (P-gp inhibitor, negative control, 0.1 mM), ATP standards (to construct the calibration curve, 0.375–3 mM) or samples (2.5 µL, in the concentration range 0.7–20 mM). After that, MgATP (5 mM) was added to total volume of 50 µL to each well to initiate the ATPase reaction. The plate was incubated for 1 h at 37 °C. Thereafter, the reaction was stopped by adding 50 µL of ATP detection reagent and incubated at room temperature for 20 min. The remaining non-metabolized ATP was detected as a luciferase-generated signal.
Using linear regression, the standard ATP curve was designed, and by subsequent interpolation of relative luminescence (RLU) of standards, the amount of ATP consumed in the samples was recalculated according to the manufacturer’s guidelines.

[5] = ORAC (oxygen radical absorption capacity) assay; details: fluorescein/AAPH; read-out: ORAC, concentration necessary to halve the fluorescence response (IC50)
Procedure: Antioxidant capacity of samples was determined by ORAC (oxygen radical absorption capacity) and CAA (cellular antioxidant activity) assays. ORAC assay was realized by the previously described protocol. Briefly, 50 µL of the fluorescein solution (1.6 µg/mL in phosphate-buffered saline (PBS), pH 7.4) was added by a dispenser (MultiFlo Microplate Dispenser, BioTek Instrument, Winooski, VT, USA) into each well of a 96-well plate. Subsequently, 2 µL of tested compound in the concentration range 1.25–20 µM and 23 µL of PBS were added to the wells. The plate was incubated for 15 min at 37 °C and then 25 µL of AAPH (60 mg/mL) was added to each well. AAPH was replaced with PBS for the negative control. Immediately, the fluorescence was recorded by the microplate reader (SpectraMax i3 Multi-Mode Detection Platform, Molecular Devices, San Jose, CA, USA) for 2 h in 5 min steps (excitation/emission 485/535 nm).

[6] = tested on: HepG2 cells; test: CAA (cellular antioxidant activity) assay; assay type: cell-based; details: Homo sapiens; HepG2, DCFH-DA/AAPH; read-out: CAA, concentration necessary to halve the fluorescence response (IC50)
Procedure: For the CAA assay, human hepatocellular carcinoma HepG2 cells (ATCC, Manassas, VA, USA) were seeded into a 96-well microplate at a density of 1 × 10^5 cells/well in EMEM medium supplemented with 10% of FBS, 2 mM L-glutamine and 1 × antibiotic antimycotic solution. The cells were maintained in a CO2 incubator (5% CO2, 37 °C, Memmert GmbH & Co, Büchenbach, Germany). The following day, the plates were washed with PBS and new fresh DMEM was added into each well supplemented with tested samples in the concentration range of 6.25–100 µM and fluorescent probe DCFH-DA (12.5 mg/L). After 1 h of incubation at 37 °C, the medium was replaced with AAPH solution (0.16 mg/mL in PBS), except for the negative control, where PBS was added instead. Directly, the fluorescence was recorded for 2 h in 5 min steps at 485/540 nm excitation/emission (ex./em.).

T1 sequence (P08183 whole entry): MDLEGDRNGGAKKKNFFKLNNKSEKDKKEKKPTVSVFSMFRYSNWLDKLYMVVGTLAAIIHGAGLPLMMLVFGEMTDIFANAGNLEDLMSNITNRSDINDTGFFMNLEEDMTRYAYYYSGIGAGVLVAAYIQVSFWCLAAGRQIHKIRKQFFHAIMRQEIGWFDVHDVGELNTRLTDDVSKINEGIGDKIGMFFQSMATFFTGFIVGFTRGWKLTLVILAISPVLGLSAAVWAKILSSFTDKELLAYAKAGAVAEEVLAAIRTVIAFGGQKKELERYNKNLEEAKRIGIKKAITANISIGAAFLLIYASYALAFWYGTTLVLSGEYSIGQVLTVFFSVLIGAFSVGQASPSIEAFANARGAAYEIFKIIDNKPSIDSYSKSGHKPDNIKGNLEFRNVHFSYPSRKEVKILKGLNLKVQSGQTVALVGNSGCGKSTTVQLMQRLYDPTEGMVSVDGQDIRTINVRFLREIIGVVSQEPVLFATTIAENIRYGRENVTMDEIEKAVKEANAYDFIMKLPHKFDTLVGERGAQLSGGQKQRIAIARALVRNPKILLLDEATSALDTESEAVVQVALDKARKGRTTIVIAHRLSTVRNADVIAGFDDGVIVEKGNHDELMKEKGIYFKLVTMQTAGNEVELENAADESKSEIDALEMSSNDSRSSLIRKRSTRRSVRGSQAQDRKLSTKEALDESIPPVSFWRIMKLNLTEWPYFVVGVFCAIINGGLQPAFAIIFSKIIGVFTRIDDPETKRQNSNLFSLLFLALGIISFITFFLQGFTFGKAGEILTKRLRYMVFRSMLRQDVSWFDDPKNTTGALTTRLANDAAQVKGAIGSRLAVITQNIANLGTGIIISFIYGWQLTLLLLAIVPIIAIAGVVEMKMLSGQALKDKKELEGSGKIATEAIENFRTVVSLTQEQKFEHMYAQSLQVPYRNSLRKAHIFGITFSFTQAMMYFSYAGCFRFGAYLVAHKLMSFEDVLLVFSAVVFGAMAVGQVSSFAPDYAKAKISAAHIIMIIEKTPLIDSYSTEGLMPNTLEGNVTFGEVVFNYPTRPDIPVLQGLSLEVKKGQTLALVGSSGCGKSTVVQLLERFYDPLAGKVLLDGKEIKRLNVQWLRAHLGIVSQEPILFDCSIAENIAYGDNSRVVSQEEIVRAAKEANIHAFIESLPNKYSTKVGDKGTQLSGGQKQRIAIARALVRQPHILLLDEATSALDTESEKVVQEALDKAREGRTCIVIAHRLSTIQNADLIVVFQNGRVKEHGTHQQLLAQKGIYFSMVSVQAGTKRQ

Structure (SMILES): COc1cccc2c1C(=O)c1c(O)c3c(c(O)c1C2=O)C[C@@](O)(C(=O)CO)C[C@@H]3O[C@H]1C[C@H](N)[C@H](O)[C@H](C)O1 [Doxorubicin, doxorubicin hydrochloride, reference compound]
IC25 ([1]; A2780/DOX): 0.94 µM | IC50 ([1]; Homo sapiens, A2780, read-out: IC50 (µM), concentration necessary to halve cell viability): 1.88 ± 0.07 µM | IC50 [2]: 1.88 ± 0.07 µM

IC50 [3]: 78.1 ± 7.5 µM
Structure (SMILES): COc1ccc2c(c1)c(CC(=O)O)c(C)n2C(=O)c1ccc(Cl)cc1 [Indomethacin, indomethacin, reference compound]

Structure (SMILES): [Na+].[Na+].[Na+].[O]=[V]([O-])([O-])[O-] [Orthovanadate, Sodium orthovanadate (Na3VO4), reference compound]
IC50 [4]: 18.9 ± 1.8 µM

IC50 [5]: 6 ± 0.7 µM | IC50 [6]: 5.4 ± 0.3 µM
Structure (SMILES): O=c1c(O)c(-c2ccc(O)c(O)c2)oc2cc(O)cc(O)c12 [Quercetin, quercetin, reference compound]
